Source: US6369109B1, “Betulinic acid and derivatives thereof useful for the treatment of neuroectodermal tumor” (Deutsches Krebsforschungszentrum Stiftung des Offentlichen …, priority 1998, dated 2002)
“Also recorded” adds a separate entry of the source.

Key:
Type in all cases: cell-based, human
[1] = system: p53 protein in SH-EP neuroblastoma cells; experiment: Western blot of p53 accumulation; conditions: 10 μg/ml betulinic acid; 0.5 μg/ml doxorubicin 12 h; FIG. 5D
Experimental: Cells were lysed for 30 min at 4° C. in PBS with 0.5% Triton X (Serva, Heidelberg, Germany) and 1 mM phenylmethylsulfonyl fluoride (Sigma, Deisenhofen, Germany) followed by high-speed centrifugation. Membrane proteins were eluted in buffer containing 0.1 M glycine. PH 3.0 and 1.5 M Tris, pH 8.8. Protein concentration was assayed using bicinchoninic acid (Pierce Chemical Co., Rockford, Ill.). Forty μg of protein per lane were separated by 12% SDS-PAGE and electroblotted onto nitrocellulose (Amersham, Braunschweig, Germany). Equal protein loading was controlled by Ponceau red staining of membranes. After blocking for 1 h in PBS supplemented with 2% BSA (Sigma) and 0.1% Tween 20 (Sigma), immunodetection of FLICE, CPP32, PARP, Bax, Bcl-x, Bcl-2, and p53 protein was done using mouse anti-FLICE monoclonal antibody C15 (1:5 dilution of hybridoma supernatant), mouse anti-CPP32 monoclonal antibody (1:1000, Transduction Laboratories, Lexington, KY), rabbit anti-PARP polyclonal antibody (1:10000, Enzyme Systems Products), rabbit anti-Bax polyclonal antibody (1:500, Calbiochem, Bad Soden, Germany), rabbit anti-Bcl-x polyclonal antibody (1:1000, Santa Cruz Biotechnology, Santa Cruz, Calif.), mouse anti-p53 monoclonal antibody (1:10000, Transduction Laboratories), and goat anti-mouse 1gG or goat antirabbit IgG (1:5000, Santa Cruz Biotechnology), ECL (Amersham) was used for detection. […]

[2] = system: CD95-resistant SH-EP^CD95R cells; experiment: Specific apoptosis in resistant cells, FACS of propidium iodide-stained nuclei; conditions: 10 μg/ml betulinic acid or 0.5 μg/ml doxorubicin, 72 h; FIG. 6A
Text: (§1) Neuroblastoma (SH-EP, IMR-32, Kelly, and LAN-5, kindly provided by Professor M. Schwab, German Cancer Research Center, Heidelberg, Germany), medulloblastoma cells (Daoy, kindly provided by Dr. T. Pietsch, Department of Neuropathology, University of Bonn Medical Center, Bonn, Germany), Ewing's sarcoma cells (A17/95, kindly provided by Dr. U. Anderer, Institute of Pathology, Humboldt University, Berlin, Germany), melanoma (A-378), breast carcinoma (MCF-71), colon carcinoma (HT-29), small cell lung carcinoma (H-126), renal cell carcinoma (KTCTL-26, kindly provided by H. Lörke, German Cancer Research Center, Heidelberg, Germany) and T-cell leukemia (CEM) cells were cultured in RPMI 1640 (Life Technologies, Inc., Eggenstein, Germany) supplemented with 10% heat-inactivated fetal bovin serum (FCS) from Conco. […]
(§2) Quantification of DNA fragmentation was performed by FACS analysis of propidium iodide stained nuclei as described in Nicoletti et al, 1991, J. Immunol. […] Cells were analyzed for DNA content by flow. cytometry (FACScan, Becton Dickinson, Heidelberg, Germany) using CELLQuest software. […] Cells were analyzed by flow cytometry (FAC-Scan. Becton Dickinson) using CELLQuest software.
(§3) SH-EP neuroblastoma cells (▪). […] Specific apoptosis was determined and calculated as described in the legend to FIG. 1A. […]

[3] = system: doxorubicin-resistant SH-EP^DoxoR cells; experiment: as above; conditions: 10 μg/ml betulinic acid or 0.5 μg/ml doxorubicin, 72 h; FIG. 6A
Text: as §1, §2, §3

COc1cccc2c1C(=O)c1c(O)c3c(c(O)c1C2=O)C[C@@](O)(C(=O)CO)C[C@@H]3O[C@H]1C[C@H](N)[C@H](O)[C@H](C)O1 [doxorubicin] was tested. Which “accumulation of p53 protein” value [1] did it give?
Its value is “induces the accumulation of p53 protein; also recorded: strongly increased”.

What about the “response of anti-CD95-resistant cells (specific apoptosis)” value [2] of the same molecule?
The value was “partially resistant to doxorubicin”.

What about the “response of doxorubicin-resistant cells (specific apoptosis)” value [3] of the same molecule?
Its value is “partially resistant to doxorubicin”.
